Measurements published in US8975234B2, “Anti-bacterial infection, inflammation, and leukemia composition and use thereof” (priority 2011, dated 2015).
In brackets after ≈: the same amount, converted by molar mass. Where two headings read alike, the source gives them in different places.

Legend:
[1] = system: MSSA (Methicillin-susceptible Staphylococcus aureus); test: Minimum inhibitory concentration (broth microdilution) and FIC index; type: cell-based
Procedure: (§1) A serial of twofold dilution of the tested antibiotics (oxacillin, erythromycin, ampicillin, kanamycin, levofoxacin, vancomycin and doxycycline) was perform by Broth microdilution method to a final concentration of 2-512 μg/mL. The bacterial overnight culture was collected and re-suspended in the Muller-Hilton (M-H) broth. An aliquot of cell suspension (OD600=0.1) was prepared. The bacterial suspensions were plated in 96-well plate and incubated with test antibiotics at 37° C. in a 5% CO2 incubator (Table 1 to Table 4).
(§2) The […], […] and antagonism between two drugs was evaluated by the following formula:
(§3) [formula] The criteria of fractional inhibitory concentration index: […]

[2] = system: standard MRSA strain (ATCC 33591); test: Minimum inhibitory concentration (broth microdilution); type: cell-based, Staphylococcus aureus; conditions: Table 1; for MIC: Staphylococcus aureus
Procedure: as §1

MRSA 18271 = test: Minimum inhibitory concentration (broth microdilution) and FIC index; type: cell-based, Staphylococcus aureus
Procedure: as §1, §2, §3

MRSA 18631 = test: as above; type: cell-based, Staphylococcus aureus
Procedure: as §1, §2, §3

MRSA 19615 = test: as above; type: cell-based, Staphylococcus aureus
Procedure: as §1, §2, §3

DPPH scavenging assay = conditions: 100 μM; −FeCl2
Procedure: Test reagents, natural extracts and Vitamin C (ascorbic acid) were dissolved in methanol to make a stock solution 10×. Vitamin C was used as the positive control. 120 μM DPPH solution was prepared. Taken 20 μL of stock reagents, natural extracts and Vitamin C on a 96-well microplate, and methanol was added to make up to the total volume of 100 μL. Control was 100 μL methanol. Each sample was mixed with 100 μL DPPH solution and incubated in the dark for 40 minutes. DPPH level of each well was evaluated by detecting the optical density of each well at 517 nm and the results were shown in Table 5.

[3] = Staphylococcus aureus, MSSA, Table 1, MSSA, read-out: Minimum inhibitory concentration
[4] = Staphylococcus aureus, MSSA, Table 3, MSSA, Tellimagrandin II (40 μg/ml) −, read-out: MIC
[5] = Staphylococcus aureus, MRSA, Table 1, MRSA 18271, read-out: Minimum inhibitory concentration
[6] = Staphylococcus aureus, MRSA, Table 3, 18271, Tellimagrandin II (40 μg/ml) −, read-out: MIC
[7] = Staphylococcus aureus, MRSA, Table 1, MRSA 18631, read-out: Minimum inhibitory concentration
[8] = Staphylococcus aureus, MRSA, Table 3, 18631, Tellimagrandin II (40 μg/ml) −, read-out: MIC
[9] = Staphylococcus aureus, MRSA, Table 1, MRSA 19615, read-out: Minimum inhibitory concentration
[10] = Staphylococcus aureus, MRSA, Table 3, 19615, Tellimagrandin II (40 μg/ml) −, read-out: MIC
[11] = Staphylococcus aureus, MSSA, Table 2, Non-drug resistant Staphylococcus aureus, with TG II 30 μg/mL, read-out: MIC
[12] = Staphylococcus aureus, MSSA, Table 2, Non-drug resistant Staphylococcus aureus, without TG II, read-out: MIC
[13] = Table 2, Non-drug resistant Staphylococcus aureus, with TG II 30 μg/mL
[14] = Table 3, MSSA, Tellimagrandin II (40 μg/ml) +
[15] = Staphylococcus aureus, MRSA, Table 2, 18271, with TG II 30 μg/mL, read-out: MIC
[16] = Staphylococcus aureus, MRSA, Table 2, 18271, with TG II 40 μg/mL, read-out: MIC
[17] = Staphylococcus aureus, MRSA, Table 2, 18271, without TG II, read-out: MIC
[18] = Table 2, 18271, with TG II 30 μg/mL
[19] = Table 2, 18271, with TG II 40 μg/mL
[20] = Table 3, 18271, Tellimagrandin II (40 μg/ml) +
[21] = Staphylococcus aureus, MRSA, Table 2, 18631, with TG II 30 μg/mL, read-out: MIC
[22] = Staphylococcus aureus, MRSA, Table 2, 18631, with TG II 40 μg/mL, read-out: MIC
[23] = Staphylococcus aureus, MRSA, Table 2, 18631, without TG II, read-out: MIC
[24] = Table 2, 18631, with TG II 30 μg/mL
[25] = Table 2, 18631, with TG II 40 μg/mL
[26] = Table 3, 18631, Tellimagrandin II (40 μg/ml) +
[27] = Staphylococcus aureus, MRSA, Table 2, 19615, with TG II 30 μg/mL, read-out: MIC
[28] = Staphylococcus aureus, MRSA, Table 2, 19615, with TG II 40 μg/mL, read-out: MIC
[29] = Staphylococcus aureus, MRSA, Table 2, 19615, without TG II, read-out: MIC
[30] = Table 2, 19615, with TG II 30 μg/mL
[31] = Table 2, 19615, with TG II 40 μg/mL
[32] = Table 3, 19615, Tellimagrandin II (40 μg/ml) +

Compound	MIC [1, 3]	MIC [1, 4]	MIC [2]	MIC (MRSA 18271; [5])	MIC (MRSA 18271; [6])	MIC (MRSA 18631; [7])	MIC (MRSA 18631; [8])	MIC (MRSA 19615; [9])	MIC (MRSA 19615; [10])	FIC [1, 14]	MIC [1, 14]	FIC (MRSA 18271; [20])	MIC (MRSA 18271; [20])	FIC (MRSA 18631; [26])	MIC (MRSA 18631; [26])	FIC (MRSA 19615; [32])	MIC (MRSA 19615; [32])	MIC (MRSA 18271; Staphylococcus aureus, MRSA)	MIC (MRSA 18631; Staphylococcus aureus, MRSA)	MIC (MRSA 19615; Staphylococcus aureus, MRSA)	further results
Penicillin																					Minimum inhibitory concentration ([1]; Table 1, MSSA): >512 µg/mL; Minimum inhibitory concentration [2]: >512 µg/mL; Minimum inhibitory concentration (MRSA 18271; Table 1, MRSA 18271): >512 µg/mL; Minimum inhibitory concentration (MRSA 18631; Table 1, MRSA 18631): >512 µg/mL; Minimum inhibitory concentration (MRSA 19615; Table 1, MRSA 19615): >512 µg/mL
NC[C@H]1O[C@H](O[C@H]2[C@H](O)[C@@H](O[C@H]3O[C@H](CO)[C@@H](O)[C@H](N)[C@H]3O)[C@H](N)C[C@@H]2N)[C@H](O)[C@@H](O)[C@@H]1O [Kanamycin]	> 512 µg/mL	512 µg/mL	> 512 µg/mL	> 512 µg/mL	512 µg/mL	> 512 µg/mL	512 µg/mL	> 512 µg/mL	512 µg/mL												
C[C@H]1COc2c(N3CCN(C)CC3)c(F)cc3c(=O)c(C(=O)O)cn1c23 [Levofloxacin]	> 512 µg/mL	512 µg/mL	32 µg/mL (≈ 88.6 µM)	> 512 µg/mL	512 µg/mL	> 512 µg/mL	256 µg/mL	> 512 µg/mL	512 µg/mL	1.00	512 µg/mL	1.00	512 µg/mL	2.00	512 µg/mL	1.00	512 µg/mL				MIC [1, 11]: 8 µg/mL; MIC [1, 12]: > 512 µg/mL; FIC [1, 13]: 0.016; MIC (MRSA 18271; [15]): 512 µg/mL; MIC (MRSA 18271; [16]): 512 µg/mL; MIC (MRSA 18271; [17]): > 512 µg/mL; FIC (MRSA 18271; [18]): 1; FIC (MRSA 18271; [19]): 1; MIC (MRSA 18631; [21]): 512 µg/mL; MIC (MRSA 18631; [22]): 512 µg/mL; MIC (MRSA 18631; [23]): > 512 µg/mL; FIC (MRSA 18631; [24]): 1; FIC (MRSA 18631; [25]): 1; MIC (MRSA 19615; [27]): 512 µg/mL; MIC (MRSA 19615; [28]): 512 µg/mL; MIC (MRSA 19615; [29]): > 512 µg/mL; FIC (MRSA 19615; [30]): 1; FIC (MRSA 19615; [31]): 1
CC[C@H]1OC(=O)[C@H](C)[C@@H](O[C@H]2C[C@@](C)(OC)[C@@H](O)[C@H](C)O2)[C@H](C)[C@@H](O[C@@H]2O[C@H](C)C[C@H](N(C)C)[C@H]2O)[C@](C)(O)C[C@@H](C)C(=O)[C@H](C)[C@@H](O)[C@]1(C)O [Erythromycin]	128 µg/mL		> 512 µg/mL	> 512 µg/mL		> 512 µg/mL		> 512 µg/mL		0.50	64 µg/mL	1.00	512 µg/mL	1.00	512 µg/mL	1.00	512 µg/mL	512 µg/mL	512 µg/mL	512 µg/mL	
O=C1O[C@H]([C@@H](O)CO)C(O)=C1O [Vitamin C, ascorbic acid]																					DPPH free-radical scavenging activity (DPPH scavenging assay): 81.09 ± 0.5%
CN[C@H](CC(C)C)C(=O)N[C@H]1C(=O)N[C@@H](CC(N)=O)C(=O)N[C@H]2C(=O)N[C@H]3C(=O)N[C@H](C(=O)N[C@H](C(=O)O)c4cc(O)cc(O)c4-c4cc3ccc4O)[C@H](O)c3ccc(c(Cl)c3)Oc3cc2cc(c3O[C@@H]2O[C@H](CO)[C@@H](O)[C@H](O)[C@H]2O[C@H]2C[C@](C)(N)[C@H](O)[C@H](C)O2)Oc2ccc(cc2Cl)[C@H]1O [Vancomycin]											>2 µg/mL	1.00	4 µg/mL	1.00	4 µg/mL	1.00	4 µg/mL	4 µg/mL	4 µg/mL	4 µg/mL	MIC ([1]; Staphylococcus aureus, MSSA): > 2 µg/mL
C[C@H]1c2cccc(O)c2C(=O)C2=C(O)[C@]3(O)C(=O)C(C(N)=O)=C(O)[C@@H](N(C)C)[C@@H]3[C@@H](O)[C@@H]21 [Doxycycline]	128 µg/mL	128 µg/mL	64 µg/mL (≈ 144 µM)	> 512 µg/mL	512 µg/mL	256 µg/mL	256 µg/mL	> 512 µg/mL	512 µg/mL	0.063	8 µg/mL	0.004	2 µg/mL	0.008	2 µg/mL	0.016	8 µg/mL				MIC [1, 11]: 16 µg/mL; MIC ([1]; Staphylococcus aureus, MSSA, Table 2, Non-drug resistant Staphylococcus aureus, with TG II 40 μg/mL, read-out: MIC): 8 µg/mL; MIC [1, 12]: 128 µg/mL; FIC [1, 13]: 0.125; FIC ([1]; Table 2, Non-drug resistant Staphylococcus aureus, with TG II 40 μg/mL): 0.016; MIC (MRSA 18271; [15]): 2 µg/mL; MIC (MRSA 18271; [16]): 2 µg/mL; MIC (MRSA 18271; [17]): 512 µg/mL; FIC (MRSA 18271; [18]): 0.004; FIC (MRSA 18271; [19]): 0.004; MIC (MRSA 18631; [21]): 2 µg/mL; MIC (MRSA 18631; [22]): 2 µg/mL; MIC (MRSA 18631; [23]): 256 µg/mL; FIC (MRSA 18631; [24]): 0.008; FIC (MRSA 18631; [25]): 0.008; MIC (MRSA 19615; [27]): 16 µg/mL; MIC (MRSA 19615; [28]): 8 µg/mL; MIC (MRSA 19615; [29]): 512 µg/mL; FIC (MRSA 19615; [30]): 0.031; FIC (MRSA 19615; [31]): 0.016
CC1(C)S[C@@H]2[C@H](NC(=O)[C@H](N)c3ccccc3)C(=O)N2[C@H]1C(=O)O [Ampicillin]										0.50	256 µg/mL	0.031	16 µg/mL	1.00	512 µg/mL	1.00	512 µg/mL	512 µg/mL	512 µg/mL	512 µg/mL	MIC ([1]; Staphylococcus aureus, MSSA): 512 µg/mL
